Patent US6506751B1, “Thiazolidinone compounds useful as chemokine inhibitors” (Millennium Pharmaceuticals, Inc., priority 1999, dated 2003)
pIC50: −log10 of the molar value.

Biological target: T1, CCR-5 receptor (Homo sapiens, UniProt P51681)
T1 construct: membranes prepared from CCR-5/L 1.2 cells; expressed in transfected cells; host or cells: L1.2 cells (CCR-5/L 1.2), membrane preparation
Test: 125I-gp120/sCD4/CCR-5 binding assay (CCR-5 receptor binding assay)
Conditions: for pIC50: block of 125I-gp120 (HIV-1 JR-FL)/sCD4 binding to membranes from CCR-5/L 1.2 cells; for inhibition at 10 µM / % Inhib. @ 10 μM: 10 μM compound, 125I-gp120/sCD4 binding to membranes from CCR-5/L 1.2 cells; for inhibition at 10 µM: read-out: % Inhib. @ 10 μM
Procedure: The ^125I-gp120/sCD4/CCR-5 binding assay is carried out similarly as described in Wu et al., Nature, 1996;384:179-183. Briefly, the envelope gp120 protein derived from HIV-1 JR-FL (Trkola et al., Nature, 1996;384:184-186), a M-tropic strain, is iodinated using solid phase lactoperoxidase to a specific activity of 20 μCi/μg. For each binding reaction (in a final volume of 100 μL binding buffer [50 mM HEPES, pH 7.5, 1 mM CaCl2, 5 mM MgCl2, and 0.5% BSA]), 25 μL (2.5 μg) of membranes prepared from CCR-5/L 1.2 cells are mixed with 25 μL (3 nM) sCD4, followed by 25 μL (0.1 nM) radiolabeled gp120 in the presence or absence of 25 μL compound dissolved in DMSO (final concentration of DMSO 0.5%). The reactions are incubated at room temperature for 45 to 60 minutes and stopped by transferring the mixture to GFB filter plates, which are then washed 3 to 4 times with binding buffer containing 0.5 M NaCl. The plates are dried and MicroScint scintillation fluid is added before counting.

T1 sequence (P51681 whole entry): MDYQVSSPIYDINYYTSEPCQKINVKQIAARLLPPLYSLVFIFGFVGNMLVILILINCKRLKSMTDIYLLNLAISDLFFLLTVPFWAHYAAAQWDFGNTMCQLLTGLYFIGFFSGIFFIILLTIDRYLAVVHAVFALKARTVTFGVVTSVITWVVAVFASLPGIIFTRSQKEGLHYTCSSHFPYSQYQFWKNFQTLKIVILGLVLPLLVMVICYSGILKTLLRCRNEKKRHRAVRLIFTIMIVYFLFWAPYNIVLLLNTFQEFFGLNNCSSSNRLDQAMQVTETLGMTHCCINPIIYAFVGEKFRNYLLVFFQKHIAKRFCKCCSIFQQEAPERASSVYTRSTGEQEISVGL

SMILES	pIC50	inhibition at 10 µM [%]	further results
O=C1/C(=C\c2ccccc2)SC(c2cccc(Cl)c2)N1CCCN1CCCCC1 (stereo not shown) [Compound 3, 5-Benzylidene-2-(3-chlorophenyl)-3-(3-piperidin-1-yl-propyl)-thiazolidin-4-one]	6.55	–	–
O=C1/C(=C\c2cccc(F)c2)SC(c2cccc(Cl)c2)N1CCCN1CCCCC1 (stereo not shown) [Compound 4, 2-(3-Chlorophenyl)-5-(3-fluorobenzylidene)-3-(3-piperidin-1-yl-propyl)-thiazolidin-4-one]	6.70	–	–
O=C1/C(=C\c2cccc(F)c2)SC(c2ccccc2)N1CCCN1CCC(N2CCCCC2)CC1 (stereo not shown) [Compound 5, 3-(3-[1,4′]Bipiperidinyl-1′-yl-propyl)-5-(3-fluorobenzylidene)-2-phenyl-thiazolidin-4-one]	6.15	–	–
O=C1/C(=C\c2cccc(F)c2)SC(c2ccccc2)N1CCCN1CCOCC1 (stereo not shown) [Compound 7, 5-(3-Fluorobenzylidene)-3-(3-morpholin-4-yl-propyl)-2-phenyl-thiazolidin-4-one]	6.85	–	–
O=C1/C(=C\c2ccncc2)SC(c2cccc(Cl)c2)N1CCCN1CCCCC1 (stereo not shown) [Compound 8, 2-(3-Chlorophenyl)-3-(3-piperidin-1-yl-propyl)-5-(pyridin-4-yl-methylene)-thiazolidin-4-one]	6.11	–	–
O=C1/C(=C\c2ccc[nH]2)SC(c2cccc(Cl)c2)N1CCCN1CCCCC1 (stereo not shown) [Compound 9, 2-(3-Chlorophenyl)-3-(3-piperidin-1-yl-propyl)-5-(1 H-pyrrol-2-yl-methylene)-thiazolidin-4-one]	6.41	–	–
O=C1/C(=C\c2ccsc2)SC(c2cccc(Cl)c2)N1CCCN1CCCCC1 (stereo not shown) [Compound 10, 2-(3-Chlorophenyl)-3-(3-piperidin-1-yl-propyl)-5-(thiophen-3-yl-methylene)-thiazolidin-4-one]	5.98	–	–
Cn1cccc1C=C1SC(c2cccc(Cl)c2)N(CCCN2CCCCC2)C1=O (stereo not shown) [Compound 11, 2-(3-Chlorophenyl)-5-(1-methyl-1H-pyrrol-2-ylmethylene)-3-(3-piperidin-1-yl-propyl)-thiazolidin-4-one]	6.01	–	–
CCC(/C=C1/SC(c2cccc(Cl)c2)N(CCCN2CCCCC2)C1=O)CC (stereo not shown) [Compound 12, 2-(3-Chlorophenyl)-5-(2-ethylbutylidene)-3-(3-piperidin-1-yl-propyl)-thiazolidin-4-one]	5.18	–	–
CN(C)CC(C)(C)/C=C1/SC(c2cccc(Cl)c2)N(CCCN2CCCCC2)C1=O (stereo not shown) [Compound 13, 2-(3-Chlorophenyl)-5-(3-dimethylamino-2,2-dimethylpropylidene)-3-(3-piperidin-1-yl-propyl)-thiazolidin-4-one]	5.55	–	–
O=C1/C(=C\c2cnc3ccccc3c2)SC(c2cccc(Cl)c2)N1CCCN1CCCCC1 (stereo not shown) [Compound 18, 2-(3-Chlorophenyl)-3-(3-piperidin-1-yl-propyl)-5-(quinolin-3-ylmethylene)-thiazolidin-4-one]	5.39	–	–
O=C1C(=Cc2ccccc2)SC(c2ccccc2)N1CCCN1CCCCCC1 (stereo not shown) [Compound 21, 3-(3-Azepan-1-ylpropyl)-5-benzylidene-2-phenyl-thiazolidin-4-one]	5.85	–	–
O=C1/C(=C\c2cccc(F)c2)SC(c2cccc(Cl)c2)N1CCCN1CCC(N2CCCCC2)CC1 (stereo not shown) [Compound 22, 3-(3-[1,4′]Bipiperidinyl-1′-yl-propyl)-2-(3-chlorophenyl)-5-(3-fluorobenzylidene)-thiazolidin-4-one]	6.40	–	–
O=C1C(=Cc2ccccc2)[S+]([O-])C(c2cccc(Cl)c2)N1CCCN1CCCCC1 (stereo not shown) [Compound 24, 5-Benzylidene-2-(3-chlorophenyl)-1-oxo-3-(3-piperidin-1-yl-propyl)-thiazolidin-4-one]	5.51	–	–
O=C1C(=Cc2cccc(F)c2)SC(c2cccc(Cl)c2)N1CCCN1CCN(c2ccccn2)CC1 (stereo not shown) [Compound 28, 2-(3-Chloro-phenyl)-5-(3-fluoro-benzylidene)-3-[3-(4-pyridin-2-yl-piperazin-1-yl)-propy1]-thiazolidin-4-one]	–	–	% Inhib. @ 10 μM: 78.8%
O=C1C(=Cc2cccc(C(F)(F)F)c2)SC(c2cccc(Cl)c2)N1CCCN1CCN(c2ncccn2)CC1 (stereo not shown) [Compound 32]	–	–	% Inhib. @ 10 μM: 81.8%
O=C1C(=Cc2ccccc2)SC(c2cccc([N+](=O)[O-])c2)N1CCCN1CCN(c2ncccn2)CC1 (stereo not shown) [Compound 39]	–	–	% Inhib. @ 10 μM: 70.1%

Now from value to molecule, other results behind:

pIC50	inhibition at 10 µM [%]	SMILES	further results
–	50.7	O=C1C(=Cc2cccc(F)c2)SC(c2cccc(C(F)(F)F)c2)N1CCCN1CCCCC1 (stereo not shown) [Compound 25, 5-(3-Fluoro-benzylidene)-3-(3-piperidin-1-yl-propyl)-2-(3-trifluoromethyl-phenyl)-thiazolidin-4-one]	–
–	75.3	O=C1C(=Cc2cccc(F)c2)SC(c2cccc(F)c2)N1CCCN1CCN(c2ccccn2)CC1 (stereo not shown) [Compound 26, 5-(3-Fluoro-benzylidene)-2-(3-fluoro-phenyl)-3-[3-(4-pyridin-2-yl-piperazin-1-yl)-propyl]-thiazolidin-4-one]	–
–	57.6	O=C1C(=Cc2cccc(F)c2)SC(c2cccc(F)c2)N1CCCN1CCN(C2CCCCC2)CC1 (stereo not shown) [Compound 27, 3-[3-(4-Cyclohexyl-piperazin-1-yl)-propyl]-5-(3-fluoro-benzylidene)-2-(3-fluoro-phenyl)-thiazolidin-4-one]	–
–	86.8	O=C1C(=Cc2cccc(F)c2)SC(c2cccc(Cl)c2)N1CCCN1CCN(c2ncccn2)CC1 (stereo not shown) [Compound 29, 2-(3-Chloro-phenyl)-5-(3-fluoro-benzylidene)-3-[3-(4-pyrimidin-2-yl-piperazin-1-yl)-propyl]-thiazolidin-4-one]	–
–	61.7	O=C1C(=Cc2cccc(C(F)(F)F)c2)SC(c2cccc(Cl)c2)N1CCCN1CCN(c2ccccn2)CC1 (stereo not shown) [Compound 30, 2-(3-Chloro-phenyl)-3-[3-(4-pyridin-2-yl-piperazin-1-yl)-propyl]-5-(3-trifluoromethyl-benzylidene)-thiazolidin-4-one]	–
–	54.4	O=C1C(=Cc2cccc(C(F)(F)F)c2)SC(c2cccc(Cl)c2)N1CCCN1CCCCC1 (stereo not shown) [Compound 31, 2-(3-Chloro-phenyl)-3-(3-piperidin-1-yl-propyl)-5-(3-trifluoromethyl-benzylidene)-thiazolidin-4-one]	–
–	62	O=C1C(=Cc2ccccc2)SC(c2cccc(C(F)(F)F)c2)N1CCCN1CCN(c2ccccn2)CC1 (stereo not shown) [Compound 33, 5-Benzylidene-3-[3-(4-pyridin-2-yl-piperazin-1-yl)-propyl]-2-(3-trifluoromethyl-phenyl)-thiazolidin-4-one]	–
–	79.2	O=C1C(=Cc2ccccc2)SC(c2cccc(C(F)(F)F)c2)N1CCCN1CCN(c2ncccn2)CC1 (stereo not shown) [Compound 34, 5-Benzylidene-3-[3-(4-pyrimidin-2-yl-piperazin-1-yl)-propyl]-2-(3-trifluoromethyl-phenyl)-thiazolidin-4-one]	–
–	76.2	O=C1C(=Cc2ccccc2)SC(c2cccc(F)c2)N1CCCN1CCN(c2ccccn2)CC1 (stereo not shown) [Compound 35, 5-Benzylidene-2-(3-fluoro-phenyl)-3-[3-(4-pyridin-2-yl-piperazin-1-yl)-propyl]-thiazolidin-4-one]	–
–	63.3	O=C1C(=Cc2ccccc2)SC(c2cccc(F)c2)N1CCCN1CCCCC1 (stereo not shown) [Compound 36, 5-Benzylidene-2-(3-fluoro-phenyl)-3-(3-piperidin-1-yl-propyl)-thiazolidin-4-one]	–
–	56.6	O=C1C(=Cc2ccccc2)SC(c2cccc(F)c2)N1CCCN1CCC(N2CCCCC2)CC1 (stereo not shown) [Compound 37, 5-Benzylidene-3-(3-[1,4′]bipiperidinyl-1′-yl-propyl)-2-(3-fluoro-phenyl)-thiazolidin-4-one]	–
–	54.4	O=C1C(=Cc2ccccc2)SC(c2cccc(F)c2)N1CCCN1CCN(C2CCCCC2)CC1 (stereo not shown) [Compound 38, 5-Benzylidene-3-[3-(4-cyclohexyl-piperazin-1-yl)-propyl]-2-(3-fluoro-phenyl)-thiazolidin-4-one]	–
–	84.3	O=C1C(=Cc2ccccc2)SC(c2cccc(Cl)c2)N1CCCN1CCN(c2ccccn2)CC1 (stereo not shown) [Compound 40, 5-Benzylidene-2-(3-chloro-phenyl)-3-[3-(4-pyridin-2-yl-piperazin-1-yl)-propyl]-thiazolidin-4-one]	–
–	62.4	O=C1C(=Cc2ccccc2)SC(c2cccc(Cl)c2)N1CCCN1CCC(N2CCCCC2)CC1 (stereo not shown) [Compound 41, 5-Benzylidene-3-(3-[1,4′]bipiperidinyl-1′-yl-propyl)-2-(3-chloro-phenyl)-thiazolidin-4-one]	–
–	64.7	O=C1C(=Cc2ccccc2)SC(c2cccc(Cl)c2)N1CCCN1CCOCC1 (stereo not shown) [Compound 42, 5-Benzylidene-2-(3-chloro-phenyl)-3-(3-morpholin-4-yl-propyl)-thiazolidin-4-one]	–
–	95	O=C1C(=Cc2ccccc2)SC(c2cccc(Cl)c2)N1CCCN1CCN(c2ncccn2)CC1 (stereo not shown) [Compound 43, 5-Benzylidene-2-(3-chloro-phenyl)-3-[3-(4-pyrimidin-2-yl-piperazin-1-yl)-propyl]-thiazolidin-4-one]	–
–	54.5	O=C1C(=Cc2ccccc2)SC(c2cccc(Cl)c2)N1CCCN1CCN(C2CCCCC2)CC1 (stereo not shown) [Compound 44, 5-Benzylidene-2-(3-chloro-phenyl)-3-[3-(4-cyclohexyl-piperazin-1-yl)-propyl]-thiazolidin-4-one]	–
